Test results: patent publication US20020137929A1, “1 - (3-heterocyclylphenyl) isothiourea, -isourea, -guanidine and -amidine herbicidal agents” (Intellectual Property Department, BASF Aktiengesellschaft, priority 1998, published 2002)

How the values were obtained:
CYPIR (Rice Flatsedge) = assay: Postemergence weed control under flooded paddy conditions; assay type: in vivo, Cyperus iria; details: postemergence weeds, rated 3 to 4 weeks after treatment
In short: (§1)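 Injury ratings (0–9 scale covering stand, vigor, malformation, size, chlorosis and overall appearance versus control) were made three to four weeks after treatment. Test material, about 0.0313 to 0.500 kg/ha a.i. in 50/50 v/v aqueous/acetone, was added to flood water 1.5 to 3 cm deep over 3 to 5 cm weeds and 1.5 to 2.5 leaf rice.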

ABUTH (Velvetleaf) = assay: Postemergence herbicidal evaluation; assay type: in vivo, Abutilon theophrasti; details: postemergence
In short: (§2)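 Herbicidal effect was judged by eye on a 0–9 scale covering stand, vigor, deformity, size and chlorosis, compared with controls, four to five weeks after seedlings about two weeks old were sprayed (40 psi, ~0.0156–0.500 kg/ha).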

[1] = test system: GLXMAW (Soybean, Williams); assay: Postemergence herbicidal evaluation; assay type: in vivo, Glycine max, (L.) Merr. cv Williams; details: postemergence
In short: as §2

GALAP (Galium) = assay: Preemergence herbicidal evaluation; assay type: in vivo, Galium aparine; details: rated 4-5 weeks after treatment
In short: (§3)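 Each species is sown separately in potting soil over roughly an inch of soil before any emergence. The soil surface then receives an aqueous acetone spray delivering about 0.0156 to 0.500 kg/ha of compound. After four to five weeks, injury is scored from 0 to 9 relative to a control.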

AMBEL (Ragweed, Common) [2] = assay: Preemergence herbicidal evaluation; assay type: in vivo, Ambrosia artemisifolia; details: rated 4-5 weeks after treatment
In short: as §3

[3] = test system: CHEAL (Lambsquarters, Common); assay: Preemergence herbicidal evaluation; assay type: in vivo, Chenopodium album; details: rated 4-5 weeks after treatment
In short: as §3

AMBEL (Ragweed, Common) [4] = assay: Postemergence herbicidal evaluation; assay type: in vivo, Ambrosia artemisifolia; details: postemergence
In short: as §2

ZEAMX (Corn, Field) = assay: Postemergence herbicidal evaluation; assay type: in vivo, Zea mays; details: postemergence
In short: as §2

[5] = test system: CHEAL (Lambsquarters, Common); assay: Postemergence herbicidal evaluation; assay type: in vivo, Chenopodium album; details: postemergence
In short: as §2

CYPSE (Flatsedge) [6] = assay: Postemergence weed control under flooded paddy conditions; assay type: in vivo, Cyperus serotinus; details: postemergence weeds, rated 3 to 4 weeks after treatment
In short: as §1

ECHCG (Barnyardgrass) = assay: Postemergence herbicidal evaluation; assay type: in vivo, Echinochloa crus-galli; details: postemergence
In short: as §2

ORYSAT (Rice, Tebonnet) = assay: Postemergence herbicidal evaluation; assay type: in vivo, Oryza sativa, (L.) Tebonnet; details: postemergence
In short: as §2

CASOB (Sicklepod) = assay: Preemergence herbicidal evaluation; assay type: in vivo, Cassia obtusifolia; details: rated 4-5 weeks after treatment
In short: as §3

CYPSE (Flatsedge) [7] = assay: Preemergence weed control under flooded paddy conditions; assay type: in vivo, Cyperus serotinus; details: rated 3-4 weeks after treatment
In short: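 Seeds or propagules sown in top 0.5 cm of silt loam soil, flooded 1.5 to 3 cm above surface throughout. Compound in 50/50 v/v aqueous/acetone pipetted into flood water at about 0.0313 to 0.500 kg/ha. Visual 0-9 rating versus control after three to four weeks in greenhouse.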

C[C@@H](C(=O)OC(C)(C)C)N1C(=O)CSC1=Nc1cc(-n2c(=O)cc(C(F)(F)F)n(C)c2=O)c(F)cc1Cl [Compound 75, tert-Butyl 2-{{2-chloro-5-[3,6-dihydro-3-methyl-2,6-dioxo-4-(trifluoromethyl)-1(2H)-pyrimidinyl]-4-fluorophenyl}imino}-α-methyl-4-oxo-3-thiazolidineacetate, L-]
Herbicidal rating CYPIR (CYPIR (Rice Flatsedge); Rate 0.0313 kg/ha): 0.0 | Herbicidal rating CYPIR (CYPIR (Rice Flatsedge); Rate 0.0625 kg/ha): 0.0 | Herbicidal rating CYPIR (CYPIR (Rice Flatsedge); Rate 0.1250 kg/ha): 6.0 | Herbicidal rating CYPIR (CYPIR (Rice Flatsedge); Rate 0.2500 kg/ha): 6.0 | ABUTH herbicidal rating (ABUTH (Velvetleaf); rate 0.0158 kg/ha): 9.0 | ABUTH herbicidal rating (ABUTH (Velvetleaf); rate 0.0315 kg/ha): 9.0 | ABUTH herbicidal rating (ABUTH (Velvetleaf); rate 0.0630 kg/ha): 9.0 | GLXMAW herbicidal rating ([1]; rate 0.0158 kg/ha): 4.0 | GLXMAW herbicidal rating ([1]; rate 0.0315 kg/ha): 4.5 | GLXMAW herbicidal rating ([1]; rate 0.0630 kg/ha): 5.0 | Preemergence herbicidal rating GALAP (GALAP (Galium); rate 0.0156 kg/ha): 0.0 | Preemergence herbicidal rating GALAP (GALAP (Galium); rate 0.0313 kg/ha): 0.0 | Preemergence herbicidal rating GALAP (GALAP (Galium); rate 0.0625 kg/ha): 0.0 | Preemergence herbicidal rating GALAP (GALAP (Galium); rate 0.1250 kg/ha): 0.0 | Preemergence herbicidal rating GALAP (GALAP (Galium); rate 0.2500 kg/ha): 0.0 | Preemergence herbicidal rating AMBEL (AMBEL (Ragweed, Common) [2]; rate 0.0156 kg/ha): 0.0 | Preemergence herbicidal rating AMBEL (AMBEL (Ragweed, Common) [2]; rate 0.0313 kg/ha): 0.0 | Preemergence herbicidal rating AMBEL (AMBEL (Ragweed, Common) [2]; rate 0.0625 kg/ha): 1.0 | Preemergence herbicidal rating AMBEL (AMBEL (Ragweed, Common) [2]; rate 0.1250 kg/ha): 6.0 | Preemergence herbicidal rating AMBEL (AMBEL (Ragweed, Common) [2]; rate 0.2500 kg/ha): 7.0 | Preemergence herbicidal rating CHEAL ([3]; rate 0.0156 kg/ha): 9.0 | Preemergence herbicidal rating CHEAL ([3]; rate 0.0313 kg/ha): 9.0 | Preemergence herbicidal rating CHEAL ([3]; rate 0.0625 kg/ha): 9.0 | Preemergence herbicidal rating CHEAL ([3]; rate 0.1250 kg/ha): 9.0 | Preemergence herbicidal rating CHEAL ([3]; rate 0.2500 kg/ha): 9.0 | AMBEL herbicidal rating (AMBEL (Ragweed, Common) [4]; rate 0.0158 kg/ha): 7.0 | AMBEL herbicidal rating (AMBEL (Ragweed, Common) [4]; rate 0.0315 kg/ha): 5.0 | AMBEL herbicidal rating (AMBEL (Ragweed, Common) [4]; rate 0.0630 kg/ha): 9.0 | ZEAMX herbicidal rating (ZEAMX (Corn, Field); rate 0.0158 kg/ha): 4.0 | ZEAMX herbicidal rating (ZEAMX (Corn, Field); rate 0.0315 kg/ha): 4.5 | ZEAMX herbicidal rating (ZEAMX (Corn, Field); rate 0.0630 kg/ha): 5.0 | CHEAL herbicidal rating ([5]; rate 0.0158 kg/ha): 7.0 | CHEAL herbicidal rating ([5]; rate 0.0315 kg/ha): 7.0 | CHEAL herbicidal rating ([5]; rate 0.0630 kg/ha): 7.0 | Herbicidal rating CYPSE (CYPSE (Flatsedge) [6]; Rate 0.0313 kg/ha): 2.0 | Herbicidal rating CYPSE (CYPSE (Flatsedge) [6]; Rate 0.0625 kg/ha): 3.0 | Herbicidal rating CYPSE (CYPSE (Flatsedge) [6]; Rate 0.1250 kg/ha): 3.0 | Herbicidal rating CYPSE (CYPSE (Flatsedge) [6]; Rate 0.2500 kg/ha): 3.0 | ECHCG herbicidal rating (ECHCG (Barnyardgrass); rate 0.0158 kg/ha): 1.0 | ECHCG herbicidal rating (ECHCG (Barnyardgrass); rate 0.0315 kg/ha): 1.0 | ECHCG herbicidal rating (ECHCG (Barnyardgrass); rate 0.0630 kg/ha): 1.0 | ORYSAT herbicidal rating (ORYSAT (Rice, Tebonnet); rate 0.0158 kg/ha): 2.0 | ORYSAT herbicidal rating (ORYSAT (Rice, Tebonnet); rate 0.0315 kg/ha): 2.5 | ORYSAT herbicidal rating (ORYSAT (Rice, Tebonnet); rate 0.0630 kg/ha): 2.5 | Preemergence herbicidal rating CASOB (CASOB (Sicklepod); rate 0.0156 kg/ha): 0.0 | Preemergence herbicidal rating CASOB (CASOB (Sicklepod); rate 0.0313 kg/ha): 0.0 | Preemergence herbicidal rating CASOB (CASOB (Sicklepod); rate 0.0625 kg/ha): 0.0 | Preemergence herbicidal rating CASOB (CASOB (Sicklepod); rate 0.1250 kg/ha): 1.0 | Preemergence herbicidal rating CASOB (CASOB (Sicklepod); rate 0.2500 kg/ha): 1.0 | CYPSE herbicidal effect rating (CYPSE (Flatsedge) [7]; 0.0313 kg/ha): 2.0 | CYPSE herbicidal effect rating (CYPSE (Flatsedge) [7]; 0.0625 kg/ha): 3.0 | CYPSE herbicidal effect rating (CYPSE (Flatsedge) [7]; 0.1250 kg/ha): 3.0 | CYPSE herbicidal effect rating (CYPSE (Flatsedge) [7]; 0.2500 kg/ha): 3.0
